In patent US9751854B2 (Millennium Pharmaceuticals, Inc., priority 2014, dated 2017):

Target: human VPS34 (Homo sapiens (Human), UniProt Q8NEB9)
Test: Human VPS34 enzyme assay (Adapta TR-FRET ADP detection)
Assay type: biochemical
Parameters: Percent Inhibition: dose or concentration left out as unconfirmed
Settings: not given

human VPS34, sequence (Q8NEB9 whole entry): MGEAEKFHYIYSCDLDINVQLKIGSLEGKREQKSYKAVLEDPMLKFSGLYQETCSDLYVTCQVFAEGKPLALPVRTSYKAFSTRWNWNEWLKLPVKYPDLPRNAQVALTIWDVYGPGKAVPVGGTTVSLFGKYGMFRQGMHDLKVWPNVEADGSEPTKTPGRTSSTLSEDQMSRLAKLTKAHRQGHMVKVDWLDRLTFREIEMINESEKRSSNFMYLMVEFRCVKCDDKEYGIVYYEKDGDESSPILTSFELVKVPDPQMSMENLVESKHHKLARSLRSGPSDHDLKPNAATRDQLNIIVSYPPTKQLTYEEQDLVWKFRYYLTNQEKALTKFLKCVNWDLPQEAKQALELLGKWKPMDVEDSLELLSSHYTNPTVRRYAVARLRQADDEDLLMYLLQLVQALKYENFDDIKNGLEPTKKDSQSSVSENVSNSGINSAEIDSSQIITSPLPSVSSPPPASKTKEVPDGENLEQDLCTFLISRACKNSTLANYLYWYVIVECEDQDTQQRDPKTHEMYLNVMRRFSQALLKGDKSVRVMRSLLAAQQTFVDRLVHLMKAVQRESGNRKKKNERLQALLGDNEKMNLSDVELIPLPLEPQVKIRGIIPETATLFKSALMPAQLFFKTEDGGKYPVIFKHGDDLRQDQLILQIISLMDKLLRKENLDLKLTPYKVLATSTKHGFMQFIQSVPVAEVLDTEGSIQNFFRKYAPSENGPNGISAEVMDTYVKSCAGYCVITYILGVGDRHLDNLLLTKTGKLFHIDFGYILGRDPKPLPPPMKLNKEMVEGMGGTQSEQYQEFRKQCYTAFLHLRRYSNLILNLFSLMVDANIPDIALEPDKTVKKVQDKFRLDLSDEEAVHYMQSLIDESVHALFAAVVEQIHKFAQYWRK

Row | Percent Inhibition [%] | SMILES
1 | >99 | CC(=O)Nc1cc(-c2cnc(C)c(NS(=O)(=O)N3CC4CCC3C4)c2)ccn1 (stereo not shown) [Compound I-445, N-{5-[(2-azabicyclo[2.2.1]hept-2-ylsulfonyl)amino]-6-methyl-3,4′-bipyridin-2′-yl}acetamide]
2 | >99 | CNc1ncc(-c2ccnc(NC(C)=O)c2)cc1NS(=O)(=O)c1ccc(F)cc1F [Compound I-31, N-[5-{[(2,4-difluorophenyl)sulfonyl]amino}-6-(methylamino)-3,4′-bipyridin-2′-yl)acetamide]

Same assay, conditions: IC50 range class

Row | IC50 [nM] | SMILES
3 | 10 to 50 | CC(=O)Nc1cc(-c2cnc(C)c(NS(=O)(=O)N3CC4CCC3C4)c2)ccn1 (stereo not shown) [Compound I-445, N-{5-[(2-azabicyclo[2.2.1]hept-2-ylsulfonyl)amino]-6-methyl-3,4′-bipyridin-2′-yl}acetamide]
4 | > 100 | Cc1nccc(Nc2cc(-c3cnc4c(c3)C(=O)N(Cc3ccccc3)CC4)ccn2)n1 [Compound I-378, 6-benzyl-3-[2-[(2-methylpyrimidin-4-yl)amino]-4-pyridyl]-7,8-dihydro-1,6-naphthyridin-5-one]
5 | > 100 | CC(=O)Nc1cc(-c2cncc(NC(=O)Cc3ccccc3)c2)ccn1 [Compound I-106, N-(2′-acetamido-3,4′-bipyridin-5-yl)-2-phenylacetamide]
6 | 10 to 50 | CC(=O)Nc1cc(-c2cncc(S(=O)(=O)N3CCC3)c2)ccn1 [Compound I-474, N-[5-(azetidin-1-ylsulfonyl)-3,4′-bipyridin-2′-yl]acetamide]
7 | < 10 | CC(=O)Nc1cc(-c2cnc(N)c(C(=O)Nc3cccc(F)c3F)c2)ccn1 [Compound I-179, 2′-acetamido-6-amino-N-(2,3-difluorophenyl)-3,4′-bipyridine-5-carboxamide]
8 | 10 to 50 | CC(=O)Nc1cc(-c2cc(NS(=O)(=O)c3ccc(F)cc3F)c(C)[n+]([O-])c2)ccn1 [Compound I-258, N-[4-(5-{[(2,4-difluorophenyl)sulfonyl]amino}-6-methyl-1-oxidopyridin-3-yl)pyridin-2-yl]acetamide]
9 | 10 to 50 | COC(=O)Nc1cc(-c2cnc(C)c(NS(=O)(=O)N(C)C)c2)ccn1 [Compound I-241, methyl (5-[(dimethylsulfamoyl)amino]-6-methyl-3,4′-bipyridin-2′-yl]carbamate]
10 | > 100 | Cc1ncc(-c2ccnc(N)c2)cc1NS(=O)(=O)N(C)C [Compound I-281, N′-(2′-amino-6-methyl-3,4′-bipyridin-5-yl)-N,N-dimethylsulfuric diamide]
11 | < 10 | CNc1ncc(-c2ccnc(NC(C)=O)c2)cc1N(CC1CC1)S(C)(=O)=O [Compound I-141]
12 | < 10 | COC(=O)Nc1cc(-c2cnc(N)c(C(=O)N(C)C)c2)ccn1 [Compound I-55, methyl [6-amino-5-(dimethylcarbamoyl)-3,4′-bipyridin-2′-yl]carbamate]
13 | < 10 | CC(=O)Nc1cc(-c2cnc(C)c(NS(=O)(=O)c3ccccc3C(F)(F)F)c2)ccn1 [Compound I-62, N-[6-methyl-5-({[2-(trifluoromethyl)phenyl]sulfonyl}amino)-3,4′-bipyridin-2′-yl]acetamide]
14 | 10 to 50 | CC(=O)Nc1cc(-c2cnc(N)c(S(=O)(=O)Cc3cccnc3)c2)ccn1 [Compound I-205, N-{6-amino-5-[(pyridin-3-ylmethyl)sulfonyl]-3,4′-bipyridin-2′-yl}acetamide]
15 | < 10 | CC(=O)Nc1cc(-c2cncc(NS(=O)(=O)c3ccc(F)cc3F)c2)ccn1 [Compound I-12, N-(5-{[(2,4-difluorophenyl)sulfonyl]amino}-3,4′-bipyridin-2′-yl)acetamide]
16 | > 100 | CC(=O)Nc1cc(-c2cncc(NC(=O)c3ccccc3)c2)ccn1 [Compound I-13, N-(2′-acetamido-3,4′-bipyridin-5-yl)benzamide]
17 | < 10 | Cc1nc(Nc2cc(-c3cnc(C)c(NS(=O)(=O)c4ccc(F)cc4F)c3)ccn2)nc(C2CC2)n1 [Compound I-382, N-{2′-[(4-cyclopropyl-6-methyl-1,3,5-triazin-2-yl)amino]-6-methyl-3,4′-bipyridin-5-yl}-2,4-difluorobenzenesulfonamide]
18 | < 10 | COC(=O)Nc1cc(-c2cnc(N)c(S(=O)(=O)N3CCCC3)c2)ccn1 [Compound I-36, methyl [6-amino-5-(pyrrolidin-1-ylsulfonyl)-3,4′-bipyridin-2′-yl]carbamate]
19 | 10 to 50 | Cc1ncc(-c2ccnc(Nc3ccn(C)n3)c2)cc1NS(=O)(=O)c1ccc(F)cc1F [Compound I-301, 2,4-difluoro-N-{6-methyl-2′-[(1-methyl-1H-pyrazole-3-yl)amino]-3,4′-bipyridin-5-yl]benzenesulfonamide]
20 | < 10 | Cc1ncc(-c2ccnc(NC(=O)C3CC3(F)F)c2)cc1NS(=O)(=O)c1ccc(F)cc1F (racemic) [Compound I-16, (rac)-N-(5-{[(2,4-difluorophenyl)sulfonyl]amino}-6-methyl-3,4′-bipyridin-2′-yl)-2,2-difluorocyclopropanecarboxamide]
21 | 50 to 100 | CC(=O)Nc1cc(-c2cnc(C)c(NS(=O)(=O)c3ccc(F)cc3F)c2)cc(C)n1 [Compound I-414, N-(5-{[(2,4-difluorophenyl)sulfonyl]amino}-6,6′-dimethyl-3,4′-bipyridin-2′-yl)acetamide]
22 | 10 to 50 | COc1ncc(-c2ccnc(NC(C)=O)c2)cc1S(=O)(=O)Nc1cc(Cl)ccc1Cl [Compound I-432, N-{5-[(2,5-dichlorophenyl)sulfamoyl]-6-methoxy-3,4′-bipyridin-2′-yl}acetamide]

Row | IC50 [nM] | SMILES
23 | 10 to 50 | Cc1nccc(Nc2cc(-c3cnc(C)c(C(=O)O)c3)ccn2)n1 [Compound I-253, 6-methyl-2′-((2-methylpyrimidin-4-yl)amino)-[3,4′-bipyridine]-5-carboxylic acid]
24 | < 10 | CC(=O)Nc1cc(-c2cnc(C)c(NS(=O)(=O)N3CCCCC3)c2)ccn1 [Compound I-214, N-{6-methyl-5-[(piperidin-1-ylsulfonyl)amino]-3,4′-bipyridin-2′-yl}acetamide]
25 | < 10 | Cc1ncc(-c2ccnc(Nc3cnccn3)c2)cc1NS(=O)(=O)c1ccc(F)cc1F [Compound I-310, 2,4-difluoro-N-[6-methyl-2′-(pyrazin-2-ylamino)-3,4′-bipyridin-5-yl]benzenesulfonamide]
26 | 10 to 50 | Cc1nccc(Nc2cc(-c3cnc(Cl)c(C(=O)N4CCC4)c3C)ccn2)n1 [Compound I-457, axetidin-1-yl{6-chloro-4-methyl-2′-[(2-methylpyrimidin-4-yl)amino]-3,4′-bipyridine-5-yl)methanone]
27 | > 100 | CC(=O)Nc1cc(-c2cnc3cn[nH]c3c2)ccn1 [Compound I-116, N-[4-(1H-pyrazolo[4,3-b]pyridin-6-yl)pyridin-2-yl]acetamide]
28 | 50 to 100 | Cc1ncc(-c2ccnc(NC(=O)C3CC3)c2)cc1C(=O)N(C)C12CC(C1)C2 [Compound I-388, N-(bicyclo[1.1.1]pent-1-yl)-2′-[(cyclopropylcarbonyl)amino]-N,6-dimethyl-3,4′-bipyridine-5-carboxamide]
29 | 10 to 50 | CC(=O)Nc1cc(-c2cnc(Cl)c(NS(=O)(=O)c3ccc(F)cc3F)c2C)c(C)cn1 [Compound I-250, N-(6-chloro-5-{[(2,4-difluorophenyl)sulfonyl]amino}-4,5′-dimethyl 3,4′-bipyridin-2′-yl)acetamide]
30 | 10 to 50 | CNc1ncc(-c2ccnc(NC(C)=O)c2)cc1NS(=O)(=O)c1ccc(F)cc1F [Compound I-31, N-[5-{[(2,4-difluorophenyl)sulfonyl]amino}-6-(methylamino)-3,4′-bipyridin-2′-yl)acetamide]
31 | 10 to 50 | CC(=O)Nc1cc(-c2cnc(C)c(S(N)(=O)=O)c2)ccn1 [Compound I-395, N-(6-methyl-5-sulfamoyl-3,4′-bipyridin-2′-yl)acetamide]
32 | < 10 | CC(=O)Nc1cc(-c2cnc(N)c(C(=O)N3Cc4ccccc4C3)c2)ccn1 [Compound I-125]
33 | 50 to 100 | CC(=O)Nc1cc(-c2cnc(C)c(N(C)S(=O)(=O)C3CC3)c2)ccn1 [Compound I-212, N-{5-[(cyclopropylsulfonyl)(methyl)amino]-6-methyl-3,4′-bipyridin-2′-yl}acetamide]
34 | > 100 | CC(=O)Nc1cc(-c2cnc3c(c2)S(=O)(=O)N[C@H](c2ccccc2)CO3)ccn1 [Compound I-420, (R)-N-(4-(1,1-dioxido-3-phenyl-3,4-dihydro-2H-pyrido[2,3-b][1,4,5]oxathiazepin-8-yl)pyridin-2-yl)acetamide]
35 | < 10 | CC(=O)Nc1cc(-c2cnc(C)c(NS(=O)(=O)c3c(F)cccc3F)c2)ccn1 [Compound I-150, N-(5-{[(2,6-difluorophenyl)sulfonyl]amino]-6-methyl-3,4′-bipyridin-2′-yl)acetamide]
36 | 10 to 50 | Cc1nccc(Nc2cc(-c3cnc(C)c(C(=O)N(C)C)c3)ccn2)n1 [Compound I-266, N,N,6-trimethyl-2′-[(2-methylpyrimidin-4-yl)amino]-3,4′-bipyridine-5-carboxamide]
37 | 10 to 50 | Cc1nccc(Nc2cc(-c3cnc(C)c(C(=O)N4CCCC4)c3)ccn2)n1 [Compound I-315, {6-methyl-2′-[(2-methylpyrimidin-4-yl)amino]-3,4′-bipyridin-5-yl}(pyrrolidin-1-yl)methanone]
38 | 10 to 50 | CC(=O)Nc1cc(-c2cnc(Cl)c(NS(=O)(=O)c3ccc(C#N)cc3Cl)c2C)ccn1 [Compound I-362, N-(6-chloro-5-{[(2-chloro-4-cyanophenyl)sulfonyl]amino}-4-methyl-3,4′-bipyridin-2′-yl)acetamide]
39 | < 10 | CC(=O)Nc1cc(-c2cnc(C)c(NS(=O)(=O)c3cn(C)nc3C(F)(F)F)c2)ccn1 [Compound I-18, N-[6-methyl-5-({[1-methyl-3-(trifluoromethyl)-1H-pyrazol-4-yl]sulfonyl}amino)-3,4′-bipyridin-2′-yl]acetamide]
40 | 50 to 100 | CC(=O)Nc1cc(-c2cnc(C)c(NS(=O)(=O)c3ccc(F)cc3F)c2)cc[n+]1[O-] [Compound I-219, N-[4-(5-{[(2,4-difluorophenyl)sulfonyl]amino}-6-methylpyridin-3-yl)-1-oxidopyridin-2-yl]acetamide]
41 | < 10 | CC(=O)Nc1cc(-c2cnc(N)c(S(=O)(=O)Nc3ccc(F)cc3F)c2)ccn1 [Compound I-170, N-{6-amino-5-[(2,4-difluorophenyl)sulfamoyl]-3,4′-bipyridin-2′-yl}acetamide]
42 | < 10 | CC(=O)Nc1cc(-c2cnc3[nH]cc(S(=O)(=O)N4CCN(C)CC4)c3c2)ccn1 [Compound I-103, N-(4-{3-[(4-methylpiperazin-1-yl)sulfonyl]-1H-pyrrolo[2,3-b]pyridin-5-yl]pyridin-2-yl)acetamide]

Row | SMILES | IC50 [nM]
43 | CC(=O)Nc1cc(-c2cnc(C)c(NS(=O)(=O)N3CCCCCC3)c2)ccn1 [Compound I-341] | 10 to 50
